From patent US10336732B2, “1-heterocyclyl isochromanyl compounds and analogs for treating CNS disorders” (Sunovion Pharmaceuticals Inc., priority 2015, dated 2019)

The compounds below were run on mice (assay: Neuropharmacological assay (SmartCube), behavioral signature of compound-treated mice). Conditions: i.p. 15 min before behavioral test, most efficacious dose(s) of 3 doses.
Format: in vivo
Summary of the method: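 Read-out is an automated video-based behavioral signature, scored as per-class probabilities (e.g., anxiolytic, antidepressant) against reference compounds. Dosing was i.p. at three doses, 15 min pre-test, in NMP, polyethylene glycol and propylene glycol. Values shown are from the most efficacious dose(s).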

| SMILES | AD: ADHD (probability that behavioral signature matches class) | AG: analgesic (probability that behavioral signature matches class) | AX: anxiolytic (probability that behavioral signature matches class) | CE: cognitive enhancer (probability that behavioral signature matches class) | DP: anti-depressant (probability that behavioral signature matches class) | HA: hallucinogen (probability that behavioral signature matches class) | MS: mood stabilizer (probability that behavioral signature matches class) | PS: anti-psychotic (probability that behavioral signature matches class) | SD: sedative hypnotic (probability that behavioral signature matches class) | UN: uncharacterized CNS activity (probability that behavioral signature matches class) |
| --- | --- | --- | --- | --- | --- | --- | --- | --- | --- | --- |
| c1ccc2c(c1)CCO[C@H]2[C@@H]1CCCN1 [Compound I-18, (S)-2-((R)-isochroman-1-yl)pyrrolidine] | + (LOQ ≤ + <5%) | ++ (5% ≤ ++ <25%) | +++ (25% ≤ +++ <50%) | ++ (5% ≤ ++ <25%) | ++ (5% ≤ ++ <25%) | + (LOQ ≤ + <5%) | ++ (5% ≤ ++ <25%) | +++ (25% ≤ +++ <50%) | ++ (5% ≤ ++ <25%) | ++ (5% ≤ ++ <25%) |
| Fc1ccc2c(c1)CO[C@H]2[C@@H]1CCCN1 [Compound I-119, (S)-2-((R)-5-fluoro-1,3-dihydroisobenzofuran-1-yl)pyrrolidine] | + (LOQ ≤ + <5%) | +++ (25% ≤ +++ <50%) | ++ (5% ≤ ++ <25%) | ++ (5% ≤ ++ <25%) | ++ (5% ≤ ++ <25%) | + (LOQ ≤ + <5%) | + (LOQ ≤ + <5%) | +++ (25% ≤ +++ <50%) | + (LOQ ≤ + <5%) | + (LOQ ≤ + <5%) |
| c1ccc2c(c1)CCO[C@H]2[C@@H]1CCN1 [Compound I-80, (S)-2-((R)-iso-chroman-1-yl)azetidine] | + (LOQ ≤ + <5%) | ++ (5% ≤ ++ <25%) | ++ (5% ≤ ++ <25%) | ++ (5% ≤ ++ <25%) | +++ (25% ≤ +++ <50%) | + (LOQ ≤ + <5%) | ++ (5% ≤ ++ <25%) | ++ (5% ≤ ++ <25%) | + (LOQ ≤ + <5%) | +++ (25% ≤ +++ <50%) |
| FC1(F)CN[C@H]([C@H]2OCCc3ccccc32)C1 [Compound I-63, (S)-4,4-difluoro-2-((S)-isochroman-1-yl)pyrrolidine] | + (LOQ ≤ + <5%) | + (LOQ ≤ + <5%) | + (LOQ ≤ + <5%) | + (LOQ ≤ + <5%) | + (LOQ ≤ + <5%) | + (LOQ ≤ + <5%) | + (LOQ ≤ + <5%) | + (LOQ ≤ + <5%) | + (LOQ ≤ + <5%) | + (LOQ ≤ + <5%) |
| Fc1cccc2c1[C@H]([C@@H]1CCCN1)OCCC2 [Compound I-105, (S)-2-((R)-9-fluoro-1,3,4,5-tetrahydrobenzo[c]oxepin-1-yl)pyrrolidine] | + (LOQ ≤ + <5%) | ++ (5% ≤ ++ <25%) | +++ (25% ≤ +++ <50%) | ++ (5% ≤ ++ <25%) | ++ (5% ≤ ++ <25%) | + (LOQ ≤ + <5%) | + (LOQ ≤ + <5%) | ++ (5% ≤ ++ <25%) | ++ (5% ≤ ++ <25%) | ++++ (50% ≤ ++++) |
| c1ccc2c(c1)CCO[C@@H]2[C@@H]1CCN1 [Compound I-79, (S)-2-((S)-isochroman-1-yl)azetidine] | ++ (5% ≤ ++ <25%) | ++ (5% ≤ ++ <25%) | +++ (25% ≤ +++ <50%) | ++ (5% ≤ ++ <25%) | ++ (5% ≤ ++ <25%) | + (LOQ ≤ + <5%) | ++ (5% ≤ ++ <25%) | +++ (25% ≤ +++ <50%) | + (LOQ ≤ + <5%) | + (LOQ ≤ + <5%) |
| Fc1ccc2c(c1)[C@H]([C@H]1CCN1)OCC2 [Compound I-87, (R)-2-((R)-7-fluoroisochroman-1-yl)azetidine] | + (LOQ ≤ + <5%) | ++ (5% ≤ ++ <25%) | ++ (5% ≤ ++ <25%) | + (LOQ ≤ + <5%) | ++ (5% ≤ ++ <25%) | + (LOQ ≤ + <5%) | + (LOQ ≤ + <5%) | +++ (25% ≤ +++ <50%) | + (LOQ ≤ + <5%) | ++ (5% ≤ ++ <25%) |
| Fc1ccc2c(c1)CO[C@@H]2[C@H]1CCN1 [Compound I-127, (R)-2-((S)-5-fluoro-1,3-dihydroisobenzofuran-1-yl)azetidine] | + (LOQ ≤ + <5%) | ++ (5% ≤ ++ <25%) | ++ (5% ≤ ++ <25%) | ++ (5% ≤ ++ <25%) | ++ (5% ≤ ++ <25%) | + (LOQ ≤ + <5%) | + (LOQ ≤ + <5%) | ++ (5% ≤ ++ <25%) | + (LOQ ≤ + <5%) | ++ (5% ≤ ++ <25%) |
| Cc1cccc2c1[C@@H]([C@@H]1CCCN1)OCC2 [Compound I-21, (S)-2-((S)-8-methylisochroman-1-yl)pyrrolidine] | + (LOQ ≤ + <5%) | ++ (5% ≤ ++ <25%) | ++ (5% ≤ ++ <25%) | + (LOQ ≤ + <5%) | ++ (5% ≤ ++ <25%) | + (LOQ ≤ + <5%) | + (LOQ ≤ + <5%) | ++ (5% ≤ ++ <25%) | + (LOQ ≤ + <5%) | +++ (25% ≤ +++ <50%) |
| c1ccc2c(c1)CCCO[C@@H]2[C@H]1CCCN1 [Compound I-99, (R)-2-((S)-1,3,4,5-tetrahydrobenzo[c]oxepin-1-yl)pyrrolidine] | + (LOQ ≤ + <5%) | ++ (5% ≤ ++ <25%) | ++ (5% ≤ ++ <25%) | ++ (5% ≤ ++ <25%) | +++ (25% ≤ +++ <50%) | + (LOQ ≤ + <5%) | + (LOQ ≤ + <5%) | ++ (5% ≤ ++ <25%) | ++ (5% ≤ ++ <25%) | + (LOQ ≤ + <5%) |
| CN1CCC[C@H]1[C@@H]1OCCc2cc(F)ccc21 [Compound I-69, (S)-2-((R)-6-fluoroisochroman-1-yl)-1-methylpyrrolidine] | + (LOQ ≤ + <5%) | +++ (25% ≤ +++ <50%) | ++ (5% ≤ ++ <25%) | ++ (5% ≤ ++ <25%) | ++ (5% ≤ ++ <25%) | + (LOQ ≤ + <5%) | + (LOQ ≤ + <5%) | ++ (5% ≤ ++ <25%) | + (LOQ ≤ + <5%) | + (LOQ ≤ + <5%) |

Same assay, conditions: i.p. 15 min before behavioral test, most efficacious dose(s) of 3 doses

| SMILES | XG: anxiogenic (probability that behavioral signature matches class) |
| --- | --- |
| c1ccc2c(c1)CCO[C@H]2[C@@H]1CCCN1 [Compound I-18, (S)-2-((R)-isochroman-1-yl)pyrrolidine] | + (LOQ ≤ + <5%) |
| Fc1ccc2c(c1)CO[C@H]2[C@@H]1CCCN1 [Compound I-119, (S)-2-((R)-5-fluoro-1,3-dihydroisobenzofuran-1-yl)pyrrolidine] | + (LOQ ≤ + <5%) |
| c1ccc2c(c1)CCO[C@H]2[C@@H]1CCN1 [Compound I-80, (S)-2-((R)-iso-chroman-1-yl)azetidine] | + (LOQ ≤ + <5%) |
| FC1(F)CN[C@H]([C@H]2OCCc3ccccc32)C1 [Compound I-63, (S)-4,4-difluoro-2-((S)-isochroman-1-yl)pyrrolidine] | + (LOQ ≤ + <5%) |
| Fc1cccc2c1[C@H]([C@@H]1CCCN1)OCCC2 [Compound I-105, (S)-2-((R)-9-fluoro-1,3,4,5-tetrahydrobenzo[c]oxepin-1-yl)pyrrolidine] | + (LOQ ≤ + <5%) |
| c1ccc2c(c1)CCO[C@@H]2[C@@H]1CCN1 [Compound I-79, (S)-2-((S)-isochroman-1-yl)azetidine] | + (LOQ ≤ + <5%) |
| Fc1ccc2c(c1)[C@H]([C@H]1CCN1)OCC2 [Compound I-87, (R)-2-((R)-7-fluoroisochroman-1-yl)azetidine] | + (LOQ ≤ + <5%) |
| Fc1ccc2c(c1)CO[C@@H]2[C@H]1CCN1 [Compound I-127, (R)-2-((S)-5-fluoro-1,3-dihydroisobenzofuran-1-yl)azetidine] | + (LOQ ≤ + <5%) |
| Cc1cccc2c1[C@@H]([C@@H]1CCCN1)OCC2 [Compound I-21, (S)-2-((S)-8-methylisochroman-1-yl)pyrrolidine] | + (LOQ ≤ + <5%) |
| c1ccc2c(c1)CCCO[C@@H]2[C@H]1CCCN1 [Compound I-99, (R)-2-((S)-1,3,4,5-tetrahydrobenzo[c]oxepin-1-yl)pyrrolidine] | + (LOQ ≤ + <5%) |
| CN1CCC[C@H]1[C@@H]1OCCc2cc(F)ccc21 [Compound I-69, (S)-2-((R)-6-fluoroisochroman-1-yl)-1-methylpyrrolidine] | + (LOQ ≤ + <5%) |
